These compounds were tested against G-protein coupled receptor 6 (Homo sapiens, UniProt P46095) (assay: Activity at GPR6 (unknown origin) expressed in CHOK1 cells assessed as inhibition of constitutive cAMP activity incubated for 45 mins by HTRF based cAMP detection assay).
Type: functional, cell-based, CHO-K1

G-protein coupled receptor 6, sequence (P46095 whole entry): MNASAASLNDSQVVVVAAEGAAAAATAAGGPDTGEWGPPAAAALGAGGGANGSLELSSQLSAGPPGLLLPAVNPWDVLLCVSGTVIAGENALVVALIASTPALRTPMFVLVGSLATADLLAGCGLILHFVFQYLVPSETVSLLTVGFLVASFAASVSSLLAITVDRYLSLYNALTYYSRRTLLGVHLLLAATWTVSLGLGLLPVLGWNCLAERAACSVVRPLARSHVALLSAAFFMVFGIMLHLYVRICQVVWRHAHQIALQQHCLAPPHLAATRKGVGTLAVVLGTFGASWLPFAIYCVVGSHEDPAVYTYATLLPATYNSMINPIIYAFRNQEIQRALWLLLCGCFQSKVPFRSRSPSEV

Row | Compound | IC50
1 | N#Cc1ccc2nc(NC3CC3)c(N3CCN(S(=O)(=O)c4ccc(OC(F)(F)F)cc4)CC3)nc2c1 | 4290 nM
2 | COCCNc1nc2ccc(C#N)cc2nc1N1CCC(Cc2ccc(F)cc2F)CC1 | 250 nM
3 | CC(C)Nc1nc2ccc(C#N)cc2nc1N1CCC([C@@H](F)c2ccc(F)cc2F)CC1 | 49 nM
4 | CC(C)Nc1nc2cc(C#N)ncc2nc1N1CCC(C(=O)c2cc(F)cc(F)c2)CC1 | 28 nM
5 | O=C(c1ccc(Cl)c(Cl)c1)N1CCN(c2nc3ccccc3nc2NC2CC2)CC1 | 79600 nM
6 | Fc1ccc(CN2CCN(c3nc4ccncc4nc3NCC(F)F)CC2)c(F)c1 | 230 nM
7 | N#Cc1ccc2nc(NC3CC3)c(N3CCN(Cc4cc(F)ccc4F)CC3)nc2c1 | 380 nM
8 | COc1ccc(CC2CCN(c3nc4cnncc4nc3NC(C)C)CC2)c(F)c1 | 15 nM
9 | N#Cc1ccc2nc(Nc3cccnc3)c(N3CCC(Cc4ccc(F)cc4F)CC3)nc2c1 | 390 nM
10 | Clc1ccc(Cl)c(CN2CCN(c3nc4ccccc4nc3Nc3cnccn3)CC2)c1 | 2340 nM
11 | Clc1ccc(Cl)c(CN2CCN(c3nc4cccc(Br)c4nc3NC3CC3)CC2)c1 | 1640 nM
12 | N#Cc1ccc2nc(N3CCN(Cc4cc(Cl)ccc4Cl)CC3)c(Nc3cccnc3)nc2c1 | 440 nM
13 | Cc1cc2nc(NC3CC3)c(N3CCC([C@@H](F)c4ccc(F)cc4F)CC3)nc2cn1 | 6 nM
14 | Cc1cc2nc(NC3CC3)c(N3CCC(Cc4ccc(F)cc4F)CC3)nc2cn1 | 20 nM
15 | N#Cc1ccc2nc(NC3CC(=O)C3)c(N3CCN(Cc4cc(Cl)ccc4Cl)CC3)nc2c1 | 97 nM
16 | N#Cc1ccc2nc(NC3CC3)c(N3CCN(S(=O)(=O)c4ccccc4C#N)CC3)nc2c1 | 4340 nM
17 | O=C(c1nccc2nc(NC3CC3)c(N3CCC([C@H](F)c4ccc(F)cc4F)CC3)nc12)N1CCOCC1 | 6 nM
18 | Fc1ccc(CC2CCN(c3nc4cnc(Cl)cc4nc3NC3CC3)CC2)c(F)c1 | 31 nM
19 | N#Cc1cccc2nc(N3CCN(Cc4cc(Cl)ccc4Cl)CC3)c(NC3CC3)nc12 | 1490 nM
20 | N#Cc1cccc(S(=O)(=O)N2CCN(c3nc4cc(C#N)ccc4nc3NC3CC3)CC2)c1 | 2540 nM
21 | Cc1c(Cl)cc(F)cc1S(=O)(=O)N1CCN(c2nc3cc(C#N)ccc3nc2NC2CC2)CC1 | 960 nM

Row | Compound | IC50
22 | Fc1ccc(CC2CCN(c3nc4cc(F)c(F)cc4nc3NC3CC3)CC2)c(F)c1 | 140 nM
23 | COc1ccc(OC2CCN(c3nc4ccncc4nc3NC3CC3)CC2)c(F)c1 | 44 nM
24 | Fc1ccc(CN2CCN(c3nc4cnncc4nc3NC3CC3)CC2)c(F)c1 | 260 nM
25 | CN(C)C(=O)c1cc2nc(NC3CC3)c(N3CCC([C@@H](F)c4ccc(F)cc4F)CC3)nc2cn1 | 8 nM
26 | Fc1ccc([C@H](F)C2CCN(c3nc4cnncc4nc3NC3CC3)CC2)c(F)c1 | 22 nM
27 | Clc1ccc(Cl)c(CN2CCN(c3nc4ccccc4nc3NC3CCOCC3)CC2)c1 | 4070 nM
28 | Clc1ccc(Cl)c(CN2CCN(c3nc4ccccc4nc3Nc3cccnn3)CC2)c1 | 1670 nM
29 | N#Cc1ccc2nc(NC3CC3)c(N3CCN(S(=O)(=O)c4cc(C(F)(F)F)ccc4Cl)CC3)nc2c1 | 1360 nM
30 | COc1ccc(CN2CCN(c3nc4c(C#N)nccc4nc3NC3CC3)CC2)c(F)c1 | 88 nM
31 | N#Cc1ccc2nc(NC3CC3)c(N3CCN(S(=O)(=O)c4ccc(C(F)(F)F)cc4Cl)CC3)nc2c1 | 1300 nM
32 | Cc1nccc2nc(NC3CC3)c(N3CCC(Cn4ccc(F)cc4=O)CC3)nc12 | 380 nM
33 | Cc1nccc2nc(NC3CC3)c(N3CCC(C(F)c4ccc(F)cc4F)CC3)nc12 (stereo unspecified) | 9 nM
34 | Fc1ccc(CC2CCN(c3nc4cc(F)ccc4nc3NC3CC3)CC2)c(F)c1 | 72 nM
35 | COc1ccc(CN2CCN(c3nc4cnc(N5CCOCC5)cc4nc3NC3CC3)CC2)c(F)c1 | 92 nM
36 | N#Cc1cccc2nc(NC3CC3)c(N3CCN(Cc4cc(Cl)ccc4Cl)CC3)nc12 | 650 nM
37 | N#Cc1ccc2nc(NC3CC3)c(N3CCN(S(=O)(=O)c4ccc(Cl)cc4)CC3)nc2c1 | 570 nM
38 | N#Cc1ccc2nc(N3CCN(C(=O)c4ccc(Cl)cc4)CC3)c(NC3CC3)nc2c1 | 340 nM
39 | CN(C)C(=O)c1cc2nc(NC3CC3)c(N3CCC([C@H](F)c4ccc(F)cc4F)CC3)nc2cn1 | 10 nM
40 | Cc1cc(CN2CCN(c3nc4ccccc4nc3NC3CC3)CC2)no1 | 105000 nM
41 | N#Cc1ccc2nc(NC3CC3)c(N3CCN(S(=O)(=O)c4ccc(Br)s4)CC3)nc2c1 | 420 nM
42 | CC(C)Nc1nc2cc(C(=O)N(C)C)ncc2nc1N1CCC(Oc2ccc(Cl)cc2F)CC1 | 6 nM

Row | Compound | IC50
43 | N#Cc1ccc2nc(NCCC(F)(F)F)c(N3CCN(Cc4ccc(F)cc4F)CC3)nc2c1 | 390 nM
44 | O=C(c1cc2nc(NC3CC3)c(N3CCC([C@@H](F)c4ccc(F)cc4F)CC3)nc2cn1)N1CCC1F (stereo partly specified) | 26 nM
45 | CC(C)(C)Nc1nc2cc(C#N)ncc2nc1N1CCC(Oc2ccc(F)cc2F)CC1 | 538 nM
46 | N#Cc1cc2nc(NC3CC3)c(N3CCC([C@@H](F)c4ccc(F)cc4F)CC3)nc2cn1 | 17 nM
47 | Cc1cc(S(=O)(=O)N2CCN(c3nc4cc(C#N)ccc4nc3NC3CC3)CC2)c(C)cc1Cl | 450 nM
48 | CC(C)Nc1nc2cnncc2nc1N1CCC(Oc2ccc(OCF)cc2F)CC1 | 8 nM
49 | Clc1ccc(Cl)c(CN2CCN(c3nc4ccccc4nc3Nc3ccccn3)CC2)c1 | 3290 nM
50 | O=C(c1nccc2nc(NC3CC3)c(N3CCC([C@@H](F)c4ccc(F)cc4F)CC3)nc12)N1CCOCC1 | 7 nM
51 | COc1ccc2nc(N3CCN(Cc4cc(Cl)ccc4Cl)CC3)c(NC3CC3)nc2c1 | 3360 nM
52 | N#Cc1ccc2nc(NC3CCC3)c(N3CCN(C(=O)c4ccc(Cl)cc4)CC3)nc2c1 | 300 nM
53 | CC(C)OCCNc1nc2ccccc2nc1N1CCN(Cc2cc(Cl)ccc2Cl)CC1 | 3330 nM
54 | N#Cc1ccc2nc(NC3CC3)c(N3CCN(S(=O)(=O)c4ccccc4F)CC3)nc2c1 | 4590 nM
55 | COc1cccc(CN2CCN(c3nc4cnncc4nc3NC(C)C)CC2)c1 | 44 nM
56 | N#Cc1ccc2nc(N3CCC(C(F)c4ccc(F)cc4F)CC3)c(NC3CC3)nc2c1 (stereo unspecified) | 29 nM
57 | O=S(=O)(c1ccccc1)N1CCN(c2nc3cc(F)ccc3nc2NC2CC2)CC1 | 9440 nM
58 | Cc1nccc2nc(NC3CC3)c(N3CCC(Cc4ccc(F)cc4F)CC3)nc12 | 2 nM
59 | Cc1cc(C(=O)N2CCN(c3nc4ccccc4nc3NC3CC3)CC2)ccc1Cl | 720 nM
60 | CC[C@@H](C)Nc1nc2cnncc2nc1N1CCC(Oc2ccc(OC)cc2F)CC1 | 30 nM
61 | Cc1nccc2nc(NC3CC3)c(N3CCC(C(F)(F)c4cc(F)ccc4F)CC3)nc12 | 45 nM
62 | CC(C)Nc1nc2cnncc2nc1N1CCC(Oc2ccc(C#N)cc2F)CC1 | 72 nM
63 | N#Cc1ccc2nc(NC3CC3)c(N3CCN(S(=O)(=O)c4ccccc4Br)CC3)nc2c1 | 1850 nM

Next, values leading:

Row | IC50 | Compound
64 | 93 nM | Cc1cc2nc(NC3CC3)c(N3CCC(S(=O)(=O)c4ccc(F)cc4)CC3)nc2cn1
65 | 3900 nM | O=C(c1c(Cl)ccc(F)c1F)C1CCN(c2nc3cnccc3nc2NC2CC2)CC1
66 | 39 nM | CCNc1nc2cnccc2nc1N1CCC(Oc2ccc(OC)cc2F)CC1
67 | 1020 nM | CCOc1ccc(OC2CCN(c3nc4cnccc4nc3NC3CC3)CC2)cc1
68 | 2650 nM | O=C(c1ccc(C(F)F)cc1)N1CCN(c2nc3cnccc3nc2NC2CC2)CC1
69 | 270 nM | FC(F)Oc1ccc(Cl)cc1CN1CCN(c2nc3cnccc3nc2NC2CC2)CC1
70 | 380 nM | Cc1ccc(C)c(CN2CCN(c3nc4cnccc4nc3NC3CC3)CC2)c1
71 | 120 nM | Fc1ccc(F)c(CN2CCN(c3nc4cnccc4nc3NC3CC3)CC2)c1
72 | 5 nM | CN(C)C(=O)c1cc2nc(NC3CC3)c(N3CCC(Oc4ccc(F)cc4F)CC3)nc2cn1
73 | 15400 nM | N#Cc1cccc(OC2CCN(c3nc4cnccc4nc3NC3CC3)CC2)c1
74 | 29 nM | COc1cc2nc(NC3CC3)c(N3CCC(Cc4ccc(F)cc4F)CC3)nc2cn1
75 | 2880 nM | N#Cc1ccccc1OC1CCN(c2nc3cnccc3nc2NC2CC2)CC1
76 | 2180 nM | O=C(c1c(F)cccc1F)C1CCN(c2nc3cnccc3nc2NC2CC2)CC1
77 | 62 nM | O=C(c1cc(F)ccc1Cl)C1CCN(c2nc3cnccc3nc2NC2CC2)CC1
78 | 18 nM | Fc1ccc(OC2CCN(c3nc4cnncc4nc3NC3CC3)CC2)c(F)c1
79 | 24 nM | Fc1ccc([C@@H](F)C2CCN(c3nc4cnccc4nc3NC3CC3)CC2)c(F)c1
80 | 478 nM | CSc1ccc(F)c(C(=O)C2CCN(c3nc4cnccc4nc3NC3CC3)CC2)c1
81 | 1940 nM | N#Cc1ccc(OC2CCN(c3nc4cnccc4nc3NC3CC3)CC2)cc1
82 | 32 nM | Clc1ccc(Cl)c(CN2CCN(c3nc4cnccc4nc3NC3CC3)CC2)c1

Row | IC50 | Compound
83 | 2740 nM | O=C(c1cccnc1Br)C1CCN(c2nc3cnccc3nc2NC2CC2)CC1
84 | 1430 nM | Fc1ccc(OC2CCN(c3nc4cc(Br)ccc4nc3NC3CC3)CC2)c(F)c1
85 | 67 nM | O=C(c1ccccc1Cl)C1CCN(c2nc3cnccc3nc2NC2CC2)CC1
86 | 7210 nM | N#Cc1cccc(C(=O)C2CCN(c3nc4cnccc4nc3NC3CC3)CC2)c1
87 | 170 nM | Fc1cc(F)c(OC2CCN(c3nc4cnccc4nc3NC3CC3)CC2)c(F)c1
88 | 35 nM | O=C(c1cc(Cl)ccc1F)C1CCN(c2nc3cnccc3nc2NC2CC2)CC1
89 | 56 nM | Clc1ccc(Cl)c(CN2CCN(c3nc4ccncc4nc3NC3CC3)CC2)c1
90 | 190 nM | COc1ccc(OC2CCN(c3nc4cnccc4nc3NC3CC3)CC2)cc1
91 | 770 nM | Cc1cc2nc(NC3CC3)c(N3CCC(Cn4cc(Cl)ccc4=O)CC3)nc2cn1
92 | 78 nM | O=C(c1ccccc1Br)C1CCN(c2nc3cnccc3nc2NC2CC2)CC1
93 | 14 nM | CSc1ccc(OC2CCN(c3nc4cnncc4nc3NC3CC3)CC2)c(F)c1
94 | 18 nM | Cc1nccc2nc(NC3CC3)c(N3CCC(Oc4ccc(F)cc4F)CC3)nc12
95 | 670 nM | COCCNc1nc2ccncc2nc1N1CCC(Oc2ccc(F)cc2F)CC1
96 | 16 nM | Fc1ccc(C(F)(F)C2CCN(c3nc4cnccc4nc3NC3CC3)CC2)c(F)c1
97 | 310 nM | Clc1ccc(OC2CCN(c3nc4cnccc4nc3NC3CC3)CC2)cc1
98 | 6040 nM | CC(O)c1ccc(OC2CCN(c3nc4cnccc4nc3NC3CC3)CC2)cc1 (stereo unspecified)
99 | 2290 nM | O=C(c1ccsc1)C1CCN(c2nc3cnccc3nc2NC2CC2)CC1
100 | 27 nM | Fc1ccc(CC2CCN(c3nc4ccncc4nc3NC3CC3)CC2)c(F)c1
101 | 1510 nM | Clc1ccccc1OC1CCN(c2nc3cnccc3nc2NC2CC2)CC1
